Measured values: ChEMBL document CHEMBL1133970, “Novel 3-dodecanoylindole-2-carboxylic acid inhibitors of cytosolic phospholipase A(2)” (Bioorg Med Chem Lett, 2001)
pIC50: −log10 of the molar value.

Species: Homo sapiens
Assay: Cytosolic phospholipase A2 (c-PLA2) inhibitory potency of the compound was evaluated by measuring the calcium ionophore A-23,187-induced arachidonic acid release from human platelets
Format: functional

CCCCCCCCCCCC(=O)c1c(C(=O)O)n(CCOc2ccc(CC(=O)O)cc2)c2ccccc12
pIC50: 5.59

CCCCCCCCCCCC(=O)c1c(C(=O)O)n(CCCCCCCC(=O)O)c2ccccc12
pIC50: 5.60

CCCCCCCCCCCC(=O)c1c(C(=O)O)n(CCSc2ccc(C(=O)O)cc2)c2ccccc12
pIC50: 5.60

CCCCCCCCCCCC(=O)c1c(C(=O)O)n(CCOc2ccc(C(=O)O)cc2)c2ccccc12
pIC50: 6.07
